Test results taken from patent US20250134869A1, “Pyrrolo[2,3-d]pyrimidinyl, Pyrrolo[2,3-b]pyrazinyl and Pyrrolo[2,3-d]pyridinyl Acryla-mides” (Pfizer Inc, priority 2021, published 2025).
Where two headings read alike, the source gives them in different places.

Key:
[1] = test system: IL-15 induced P-STAT5 in human PBMC; experiment: PBMC IL-15 induced P-STAT5; format: cell-based; settings: human PBMC, IL-15 stimulated, read-out: PBMC IL15-pSTAT5 IC50
Protocol: PBMC IL-15 Induced P-STAT5
Frozen human PBMC (200-250 million cells/vial) was thawed at 37° C. The cells were transferred to 10 mL warm medium in a 50-mL conical tube, and centrifuged at 1,200 RPM at room temperature for 5 min. The supernatant was aspirated. […] After adding 47 ml D-PBS (37° C.) to PBMC/FBS suspension, centrifuging at 1,200 RPM at room temperature for 5 min, and aspirating the supernatant, the cells were resuspended in 20 mL warm RPMI medium. Ninety μL of cell suspension were pipetted per well in a 96-well, deep-well, V-bottom plate, and the plate was incubated at 37° C. for 30 min. […] After adding 0.8 mL staining buffer per well, the plates were centrifuged at 1,200 RPM (Beckman GS-6R or Sorvall Legend) at room temperature for 5 min, and again the supernatant was aspirated using a 8-channel or 12-channel manifold. The plate was vortexed, and 0.35 mL 90% methanol/10% H2O (−20° C.) was added per well, and the plate incubated on ice for 20 min. After again adding 0.8 mL staining buffer per well, the plates were centrifuged at 1,200 RPM (Beckman GS-6R or Sorvall Legend) at room temperature for 5 min, and again the supernatant was aspirated using a 8-channel or 12-channel manifold, and then 0.8 mL Staining buffer was added per well. After once again adding 0.8 mL staining buffer per well, the plates were centrifuged at 1,200 RPM (Beckman GS-6R or Sorvall Legend) at room temperature for 5 min, and again the supernatant was aspirated using a 8-channel or 12-channel manifold. […] Samples of 250 μL/well were transferred to a 96-well U-bottom plate, and the FACS analysis was performed gating on total lymphocytes. Samples were analyzed using a BD Calibur™ or BD FACSCanto™ flow cytometer equipped with the BD High Throughput Sampler.

JAK3 enzyme = JAK3 enzyme (Homo sapiens (Human), UniProt P52333); experiment: JAK Caliper Enzyme Assay at 4 μM or 1 mM ATP; format: biochemical
Sequence of JAK3 enzyme (P52333 whole entry, species assumed): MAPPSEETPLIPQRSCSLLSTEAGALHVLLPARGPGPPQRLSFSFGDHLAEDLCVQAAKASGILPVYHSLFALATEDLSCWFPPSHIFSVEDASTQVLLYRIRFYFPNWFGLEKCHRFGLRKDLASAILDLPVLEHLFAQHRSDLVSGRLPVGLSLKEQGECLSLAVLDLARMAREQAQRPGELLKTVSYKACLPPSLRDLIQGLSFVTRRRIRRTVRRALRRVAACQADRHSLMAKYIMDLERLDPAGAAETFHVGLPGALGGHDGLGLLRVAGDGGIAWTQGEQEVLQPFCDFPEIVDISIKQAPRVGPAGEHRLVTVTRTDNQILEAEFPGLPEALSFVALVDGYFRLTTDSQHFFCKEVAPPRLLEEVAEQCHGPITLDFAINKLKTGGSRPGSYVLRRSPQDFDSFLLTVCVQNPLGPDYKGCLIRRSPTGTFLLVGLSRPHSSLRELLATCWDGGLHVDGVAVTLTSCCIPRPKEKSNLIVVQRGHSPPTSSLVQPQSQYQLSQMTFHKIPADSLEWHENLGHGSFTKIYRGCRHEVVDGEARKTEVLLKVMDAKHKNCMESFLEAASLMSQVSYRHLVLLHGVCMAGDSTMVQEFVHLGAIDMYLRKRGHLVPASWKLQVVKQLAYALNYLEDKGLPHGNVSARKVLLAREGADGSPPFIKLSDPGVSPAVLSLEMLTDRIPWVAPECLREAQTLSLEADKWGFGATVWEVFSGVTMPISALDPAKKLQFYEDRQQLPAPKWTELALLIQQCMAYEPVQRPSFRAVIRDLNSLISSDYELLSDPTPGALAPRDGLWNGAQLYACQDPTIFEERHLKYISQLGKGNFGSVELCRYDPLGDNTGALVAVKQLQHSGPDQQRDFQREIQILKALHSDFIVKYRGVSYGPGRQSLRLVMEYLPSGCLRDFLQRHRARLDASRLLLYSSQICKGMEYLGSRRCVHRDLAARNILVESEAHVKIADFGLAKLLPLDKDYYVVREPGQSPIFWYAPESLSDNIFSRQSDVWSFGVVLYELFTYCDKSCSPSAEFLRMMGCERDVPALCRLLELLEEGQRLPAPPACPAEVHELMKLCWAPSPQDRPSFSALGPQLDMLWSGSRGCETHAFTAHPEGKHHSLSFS

[2] = test system: IL-15 induced STAT5 phosphorylation in human whole blood lymphocytes; experiment: HWB IL-15 induced STAT5 phosphorylation assay; format: cell-based; settings: Lymphocyte, IL-15 stimulated, read-out: HWB-IL15-pSTAT5 IC50
Protocol: HWB IL-15 Induced STAT5 Phosphorylation Assay
After mixing and incubating for 45 minutes at 37° C., 5 μl D-PBS (unstimulated control) or 20× stocks of 5 μl human IL-15 (final concentration is 50 ng/ml) were added, and mixed three times. After incubating 15 minutes at 37° C., 1× Lyse/Fix Buffer (BD Phosflow 5× Lyse/Fix Buffer) was added to all wells at 1000 μl/well, then incubated for 20 minutes at 37° C. and spun 5 mins at 1200 rpm. […] Following incubating at 4° C. over night, all the samples were transferred to 96-well polypropylene U-bottom plate, and checked by flow cytometry gated on total lymphocytes.

[3] = read-out: JAK3 (4 μM ATP) IC50, 4 μM ATP
[4] = read-out: JAK3 (1 mM ATP) IC50, 1 mM ATP

| IC50 (JAK3 enzyme; [3]) [nM] | IC50 (JAK3 enzyme; [4]) [nM] | IC50 [2] [nM] | Compound | IC50 [1] [nM] | IC50 ([1]; Homo sapiens, PBMC) [nM] |
| --- | --- | --- | --- | --- | --- |
| – | – | – | C=CC(=O)N1CC(Nc2ncnc3[nH]ccc23)CCC1CO (stereo not drawn) [Example 52, 1-[2-(Hydroxymethyl)-5-(7H-pyrrolo[2,3-d]pyrimidin-4-ylamino)piperidin-1-yl]prop-2-en-1-one] | > 354 | – |
| 622 | – | – | C=CC(=O)N1CC[C@@H](Nc2cnc3[nH]ccc3n2)C1 [Example 335, (R)-1-(3-((5H-Pyrrolo[2,3-b]pyrazin-2-yl)amino)pyrrolidin-1-yl)prop-2-en-1-one] | > 10000 | – |
| 5.3 | 996 | – | C=CC(=O)N1CC[C@@H](O)[C@@H](Nc2ncnc3[nH]ccc23)C1 (racemic) [Example 64, 1-[(3S,4R)-4-Hydroxy-3-(7H-pyrrolo[2,3-d]pyrimidin-4-ylamino)piperidin-1-yl]prop-2-en-1-one] | 4640 | – |
| 387 | > 10000 | – | C=CC(=O)N1C[C@H](OC)C[C@@H](N(C)c2ncnc3[nH]ccc23)C1 [Example 78, 1-{(3R,5R)-3-Methoxy-5-[methyl(7H-pyrrolo[2,3-d]pyrimidin-4-yl)amino]piperidin-1-yl}prop-2-en-1-one] | > 10000 | – |
| 802 | > 10000 | – | C=C(COC)C(=O)N1CCC[C@@H](Nc2ncnc3[nH]ccc23)C1 [Example 94, 2-(methoxymethyl)-1-[(3R)-3-(7H-pyrrolo[2,3-d]pyrimidin-4-ylamino)piperidin-1-yl]prop-2-en-1-one] | > 10000 | – |
| – | – | – | O=C(/C=C/C(F)(F)F)N1CC[C@@H]2CCN(c3ncnc4[nH]ccc34)[C@@H]2C1 [Example 81, (2E)-4,4,4-trifluoro-1-[(3aS,7aS)-1-(7H-pyrrolo[2,3-d]pyrimidin-4-yl)octahydro-6H-pyrrolo[2,3-c]pyridin-6-yl]but-2-en-1-one] | – | > 4000 |
| – | – | – | C=CC(=O)N1CC[C@@H]2OCCN(c3ncnc4[nH]ccc34)[C@H]2C1 [Example 119, 1-[(4aS,8aS)-4-(7H-Pyrrolo[2,3-d]pyrimidin-4-yl)hexahydro-2H-pyrido[4,3-b][1,4]oxazin-6 (5H)-yl]prop-2-en-1-one] | > 10000 | – |
| – | – | – | C=CC(=O)N1CC[C@H]2CCN(c3ncnc4[nH]ccc34)[C@H]2C1 [Example 76, 1-[(3aR,7aR)-1-(7H-Pyrrolo[2,3-d]pyrimidin-4-yl)octahydro-6H-pyrrolo[2,3-c]pyridin-6-yl]prop-2-en-1-one] | > 6080 | – |
| – | – | – | C=CC(=O)N1CCC[C@@](C)(Nc2ncnc3[nH]ccc23)C1 [Example 72, (R)-1-(3-((7H-pyrrolo[2,3-d]pyrimidin-4-yl)amino)-3-methylpiperidin-1-yl)prop-2-en-1-one] | – | > 10000 |
| – | – | – | C=CC(=O)N1CCCC(C)(Nc2ncnc3[nH]ccc23)C1 (stereo not drawn) [Example 71, 1-(3-((7H-Pyrrolo[2,3-d]pyrimidin-4-yl)amino)-3-methylpiperidin-1-yl)prop-2-en-1-one] | – | > 10000 |
| 3.2 | 403 | – | C=CC(=O)N1CC[C@]2(C)CCN(c3ncnc4[nH]ccc34)[C@@H]2C1 [Example 59, 1-((3aS,7aS)-3a-Methyl-1-(7H-pyrrolo[2,3-d]pyrimidin-4-yl)hexahydro-1H-pyrrolo[2,3-c]pyridin-6 (2H)-yl)prop-2-en-1-one] | – | > 2550 |
| 692 | > 10 | – | C=CC(=O)c1c[nH]c2ncnc(N[C@H]3CN(C(=O)C=C)CC[C@H]3F)c12 [Example 120, 1-(4-{[(3S,4R)-1-Acryloyl-4-fluoropiperidin-3-yl]amino}-7H-pyrrolo[2,3-d]pyrimidin-5-yl)prop-2-en-1-one] | > 10000 | – |
| 1 | 91 | – | C=CC(=O)N1CCC(Oc2cnc3[nH]cc(-c4ccc(F)nc4)c3n2)CC1 [Example 226, 1-(4-{[7-(6-fluoropyridin-3-yl)-5H-pyrrolo[2,3-b]pyrazin-2-yl]oxy}piperidin-1-yl)prop-2-en-1-one] | 699 | – |
| 48.2 | 358 | – | C=CC(=O)N1CCC[C@@H](Nc2ncnc3[nH]cc(-c4cnn(C)c4)c23)C1 [Example 28, 1-[(3R)-3-{[5-(1-methyl-1H-pyrazol-4-yl)-7H-pyrrolo[2,3-d]pyrimidin-4-yl]amino}piperidin-1-yl]prop-2-en-1-one] | > 10000 | – |
| 30.6 | 3400 | – | C=CC(=O)N1CC[C@H](Nc2cnc3[nH]ccc3n2)C1 [Example 336, (S)-1-(3-((5H-Pyrrolo[2,3-b]pyrazin-2-yl)amino)pyrrolidin-1-yl)prop-2-en-1-one] | > 10000 | – |
| 703 | > 10000 | – | C=C(CO)C(=O)N1CCC[C@@H](Nc2ncnc3[nH]ccc23)C1 [Example 93, 2-(hydroxymethyl)-1-[(3R)-3-(7H-pyrrolo[2,3-d]pyrimidin-4-ylamino)piperidin-1-yl]prop-2-en-1-one] | > 10000 | – |
| – | – | > 10000 | C=CC(=O)N1CCC(Nc2cnc3[nH]cc(C(=O)NCCCCCCCCC#N)c3n2)CC1 [Example 260, 2-[(1-acryloylpiperidin-4-yl)amino]-N-(8-cyanooctyl)-5H-pyrrolo[2,3-b]pyrazine-7-carboxamide] | – | – |
| – | – | – | C=CC(=O)N1CC[C@H](O)[C@@H](Nc2ncnc3[nH]ccc23)C1 (racemic) [Example 113, rac-1-[(3S,4S)-4-Hydroxy-3-(7H-pyrrolo[2,3-d]pyrimidin-4-ylamino)piperidin-1-yl]prop-2-en-1-one] | > 10000 | – |
| 35.2 | 3940 | – | C=CC(=O)N1CC[C@@H]2CCN(c3ncnc4[nH]cc(CCOC)c34)[C@@H]2C1 [Example 89, 1-{(3aS,7aS)-1-[5-(2-Methoxyethyl)-7H-pyrrolo[2,3-d]pyrimidin-4-yl]octahydro-6H-pyrrolo[2,3-c]pyridin-6-yl}prop-2-en-1-one] | > 6160 | – |
| – | – | > 10000 | C=CC(=O)N1C[C@H](C)C[C@@H](Nc2ncnc3[nH]ccc23)C1 (racemic) [Example 65, Rac-1-((3R,5R)-3-((7H-Pyrrolo[2,3-d]pyrimidin-4-yl)amino)-5-methylpiperidin-1-yl)prop-2-en-1-one] | – | – |
| – | – | – | C=C(CN(C)C)C(=O)N1CCC[C@@H](Nc2ncnc3[nH]ccc23)C1 [Example 92, 2-[(dimethylamino)methyl]-1-[(3R)-3-(7H-pyrrolo[2,3-d]pyrimidin-4-ylamino)piperidin-1-yl]prop-2-en-1-one] | > 10000 | – |
| 57.2 | 5290 | – | CN(C)C/C=C/C(=O)N1CC[C@@H]2CCN(c3ncnc4[nH]ccc34)[C@@H]2C1 [Example 82, (2E)-4-(dimethylamino)-1-[(3aS,7aS)-1-(7H-pyrrolo[2,3-d]pyrimidin-4-yl)octahydro-6H-pyrrolo[2,3-c]pyrdin-6-yl]but-2-en-1-one] | > 7300 | – |
| 4 | 608 | – | C=CC(=O)N1CCC[C@@H](Nc2ccnc3[nH]cc(C)c23)C1 [Example 47, 1-{(3R)-3-[(3-methyl-1H-pyrrolo[2,3-b]pyridin-4-yl)amino]piperidin-1-yl}prop-2-en-1-one] | 1080 | – |
| – | – | > 10000 | C=CC(=O)N1CCC(Nc2cnc3[nH]cc(C(=O)N[C@H]4CCC[C@H](CC#N)C4)c3n2)CC1 [Example 262, 2-[(1-acryloylpiperidin-4-yl)amino]-N-[(1S,3S)-3-(cyanomethyl)cyclohexyl]-5H-pyrrolo[2,3-b]pyrazine-7-carboxamide] | – | – |
| – | – | – | C=CC(=O)N1CC[C@@H]2CCN(c3ncnc4[nH]ccc34)[C@H]2C1 [Example 49, 1-[(3aS,7aR)-1-(7H-Pyrrolo[2,3-d]pyrimidin-4-yl)octahydro-6H-pyrrolo[2,3-c]pyridin-6-yl]prop-2-en-1-one] | 355 | – |
| – | – | – | C=CC(=O)N1CC[C@@H]2OCCN(c3ncnc4[nH]ccc34)[C@@H]2C1 [Example 90, 1-[(4aR,8aS)-4-(7H-Pyrrolo[2,3-d]pyrimidin-4-yl)hexahydro-2H-pyrido[4,3-b][1,4]oxazin-6 (5H)-yl]prop-2-en-1-one] | – | > 10000 |

| Compound | IC50 (JAK3 enzyme; [3]) [nM] | IC50 (JAK3 enzyme; [4]) [nM] | IC50 [2] [nM] | IC50 [1] [nM] | IC50 ([1]; Homo sapiens, PBMC) [nM] |
| --- | --- | --- | --- | --- | --- |
| C=CC(=O)N1CCC(Oc2cnc3[nH]cc(-c4cncc(C#N)c4)c3n2)CC1 [Example 225, 5-{2-[(1-acryloylpiperidin-4-yl)oxy]-5H-pyrrolo[2,3-b]pyrazin-7-yl}pyridine-3-carbonitrile] | 1.4 | 120 | – | 2910 | – |
